From PubChem BioAssay (NCI)
Several values for one entry are separate records, joined by “and”; a condition that tells them apart may be missing. Equal values may be shown once.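 96-well plates; 48 h exposure; 5 concentrations. Endpoints by linear interpolation between flanking doses. Not reached: highest tested concentration assigned. The concentration for 50% growth inhibition is given as GI50. TGI: total growth inhibition.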

Experiments:
Assay in all cases: growth of human tumour cells (NCI), 48 h
ACHN renal = test system: ACHN renal
LOX IMVI melanoma = test system: LOX IMVI melanoma
786-0 renal = test system: 786-0 renal
RPMI-8226 leukemia = test system: RPMI-8226 leukemia
OVCAR-8 ovarian = test system: OVCAR-8 ovarian
SNB-19 CNS = test system: SNB-19 CNS
SF-268 CNS = test system: SF-268 CNS
SK-MEL-2 melanoma = test system: SK-MEL-2 melanoma
OVCAR-3 ovarian = test system: OVCAR-3 ovarian
HOP-62 NSCLC = test system: HOP-62 NSCLC

SMILES | TGI (ACHN renal) | TGI (LOX IMVI melanoma) | TGI (786-0 renal) | TGI (RPMI-8226 leukemia) | TGI (OVCAR-8 ovarian) | TGI (SNB-19 CNS) | TGI (SF-268 CNS) | TGI (SK-MEL-2 melanoma) | TGI (OVCAR-3 ovarian) | TGI (HOP-62 NSCLC) | GI50 (ACHN renal) | GI50 (LOX IMVI melanoma) | GI50 (786-0 renal) | GI50 (RPMI-8226 leukemia) | GI50 (OVCAR-8 ovarian) | GI50 (SNB-19 CNS) | GI50 (SF-268 CNS) | GI50 (SK-MEL-2 melanoma) | GI50 (OVCAR-3 ovarian) | GI50 (HOP-62 NSCLC)
CC1OC(OCC2OC(Oc3c(-c4ccc(O)cc4)oc4cc(O)cc(O)c4c3=O)C(OC3OC(C)C(O)C(O)C3O)C(O)C2O)C(O)C(O)C1O (configuration not stated) | > 100 µM | > 100 µM | > 100 µM | > 81.3 µM | > 100 µM | > 100 µM | > 100 µM | > 100 µM | > 100 µM | > 100 µM |  |  |  |  |  |  |  |  |  | 
CN(C)c1ccc([O-])cc1.CN(C)c1ccc([O-])cc1.CN(C)c1ccc([O-])cc1.CN(C)c1ccc([O-])cc1.[Ti+4] | > 100 µM | > 100 µM | > 100 µM | > 100 µM | > 100 µM | > 100 µM | > 100 µM | > 100 µM | > 100 µM | > 100 µM | 56.3 µM | 76.9 µM | > 100 µM | 30.9 µM | 73.7 µM | > 100 µM | > 100 µM | > 100 µM | > 100 µM | > 100 µM
O=C1C=CC=CC2CC=C[C@@H](O)C12 (some centres not stated) | 31.8 µM | 38.9 µM | 33.8 µM | 15.3 µM | > 100 µM | 54.3 µM | 54.5 µM | 58.5 µM |  | > 100 µM |  |  |  |  |  |  |  |  |  | 
O=C(O)COc1ccc(O)c2c1C(=O)CCCC2=O | > 100 µM | > 100 µM | > 100 µM | > 100 µM | > 100 µM | > 100 µM | > 100 µM | > 100 µM | > 100 µM | > 100 µM |  |  |  |  |  |  |  |  |  | 
Cc1ccc(S(=O)(=O)NCCNC2=CC(=O)c3nc4ccccc4c4ccnc2c34)cc1 | 97 µM | 42.4 µM | 50.2 µM | > 100 µM | 72.7 µM | 33.9 µM | 52.3 µM | > 100 µM | 46.4 µM | 61.3 µM | 22.3 µM | 16.6 µM | 20.6 µM | 10.5 µM | 19.5 µM | 13.8 µM | 19.1 µM | 33 µM | 17.5 µM | 20.6 µM
CCOC(=O)C1=C(c2ccccc2)N(C)c2ccccc2S1 | 58.5 µM | 30.3 µM | > 100 µM | 66.5 µM | > 100 µM | > 100 µM | 97.3 µM | 45.3 µM | > 100 µM | > 100 µM |  |  |  |  |  |  |  |  |  | 
CSC(CC(=O)O)C(=O)O (configuration not stated) | > 100 µM | > 100 µM | > 100 µM | > 100 µM | > 100 µM | > 100 µM | > 100 µM | > 100 µM | > 100 µM | > 100 µM |  |  |  |  |  |  |  |  |  | 
COc1cc(/C=C\c2ccccc2)cc(OC)c1OC | > 78.5 µM | > 100 µM | > 52.8 µM | 46.2 µM | 46.7 µM | > 77.5 µM | 59.2 µM | 26.2 µM | 5.58 µM | 23.5 µM |  |  |  |  |  |  |  |  |  | 
C=C(CCCCCCCCC)CC(=O)SCCNC(=O)CCNC(=O)C(O)C(C)(C)COP(=O)(O)OP(=O)(O)OCC1OC(n2cnc3c(N)ncnc32)C(O)C1OP(=O)(O)O (configuration not stated) | > 100 µM | 75.7 µM | > 100 µM | 62.7 µM | > 100 µM | > 100 µM | 15.3 µM | 99.3 µM | > 100 µM | > 85.7 µM |  |  |  |  |  |  |  |  |  | 
O=C([CH-]C(=O)c1ccccc1)c1ccccc1.O=C([CH-]C(=O)c1ccccc1)c1ccccc1.O=C([CH-]C(=O)c1ccccc1)c1ccccc1.[Nd+3].[OH3+] | 21.2 µM | 29.4 µM | 18.5 µM | 26.4 µM | 22.1 µM | 29.1 µM | 31.1 µM | 15.6 µM | 14.8 µM | 9.96 µM | 5.93 µM | 11.5 µM | 5.06 µM | 3.47 µM | 3.3 µM | 4.52 µM | 4.16 µM | 3.97 µM | 3.01 µM | 2.62 µM
COc1cc(/C=C2\CCC/C(=C\c3cc(OC)c(O)c(OC)c3)C2=O)cc(OC)c1O | 2.31 µM and 3.94 µM |  |  | 7.54 µM | 75 µM | 75 µM and > 100 µM | > 100 µM | 11.8 µM and 4.19 µM |  |  | 1.85 µM | 1.53 µM | 3.9 µM |  |  | 3.61 µM |  | 1.63 µM | 3.47 µM | 5.93 µM
COc1ccc(-c2nc3sc(-c4ccc(Cl)cc4)cn3n2)cc1 | 2.02 µM | > 50 µM | 2.41 µM | > 50 µM | > 50 µM | > 50 µM | > 50 µM | > 50 µM | 7.2 µM | > 50 µM | 0.927 µM | > 50 µM | 1.06 µM | 3.67 µM | 2.6 µM | 2.47 µM | 48 µM | > 50 µM | 1.72 µM | 2.36 µM
CC1CCP(=O)(c2ccccc2)c2ccccc21 (configuration not stated) | > 100 µM | 58 µM | > 100 µM | > 100 µM | > 100 µM | > 100 µM |  | > 100 µM | > 100 µM | > 100 µM |  |  |  |  |  |  |  |  |  | 
O=C(Nc1cccs1)c1c(O)[nH]c(=S)[nH]c1=O | > 100 µM | > 100 µM | > 100 µM | > 100 µM | > 100 µM | > 100 µM | > 100 µM | > 100 µM | > 100 µM | > 100 µM |  |  |  |  |  |  |  |  |  | 
C/C(=N\O)c1cccc(Nc2cc(-n3ccnn3)c3ccccc3n2)c1 | 34 µM | 30.4 µM | 51.5 µM | 32 µM | 41 µM | > 100 µM | > 100 µM | 29.5 µM | 55.8 µM | 30.7 µM | 15 µM | 15.4 µM | 18.3 µM | 12.5 µM | 17.5 µM | 45.6 µM | > 100 µM | 15.3 µM | 20.2 µM | 15.2 µM
CCC(=O)O[C@H]1CC[C@H]2[C@@H]3CC[C@H]4CC(=O)[C@H](C)C[C@]4(C)[C@H]3CC[C@]12C | > 100 µM | > 100 µM | > 100 µM | 13 µM | > 100 µM | > 100 µM | > 100 µM | > 100 µM | > 84.1 µM | > 100 µM | 38 µM | 25.2 µM | 43.3 µM | 2.52 µM | 43.1 µM | > 100 µM | > 75.7 µM | 32 µM | 31.2 µM | 37.7 µM
O=C1C(c2c[nH]c3ccccc23)=C(c2c[nH]c3ccccc23)C(=O)N1O | > 25 µM | > 25 µM | > 25 µM | > 25 µM | > 25 µM | > 25 µM | > 25 µM | > 25 µM | > 25 µM | > 25 µM | > 25 µM | 4.65 µM | > 25 µM | > 25 µM | > 25 µM | > 25 µM | > 25 µM | > 25 µM | > 25 µM | > 25 µM
O=C(Nc1ccc(F)cc1)c1ccc(NC2=C(Cl)C(=O)N(Cc3ccccc3)C2=O)cc1 | 27.8 µM | 25.2 µM | 22.9 µM | 12.3 µM | 30.9 µM | 41.3 µM | 23.6 µM | 19.3 µM | 15.3 µM |  | 14.3 µM | 11.3 µM | 10.5 µM | 3.43 µM | 4.66 µM | 10.8 µM | 4.4 µM | 5.34 µM | 3.59 µM | 
COC(=O)C(C(=O)C(=O)Nc1ccc(C(F)(F)F)cc1[N+](=O)[O-])c1csc(-n2nc(-c3ccccc3)cc2-c2ccccc2)n1 (configuration not stated) |  | > 100 µM | > 100 µM | > 100 µM | > 100 µM | > 100 µM |  | > 100 µM | > 100 µM | > 100 µM |  |  |  |  |  |  |  |  |  | 
O=C(/C=C/c1ccccc1)CC1OC(=O)c2ccccc21 (configuration not stated) | > 100 µM | > 100 µM | > 100 µM | 82.5 µM | > 100 µM | > 100 µM | > 100 µM | > 100 µM |  | > 100 µM |  |  |  |  |  |  |  |  |  | 
CCc1cccc(C(C)C)c1NC(=O)C(=O)CC(=O)c1c(C)n([O-])c2ccccc2[n+]1=O | > 100 µM | > 100 µM | > 100 µM | > 100 µM | > 100 µM | > 100 µM | > 100 µM | > 100 µM |  | > 100 µM |  |  |  |  |  |  |  |  |  | 
CC(C)C1(O)C(c2ccccc2)=C(c2ccccc2)C(c2ccccc2)=C1c1ccccc1 |  | 20 µM | 74.4 µM | 5.26 µM | > 100 µM | > 100 µM | 27.6 µM | 18.9 µM | 27.8 µM | 30.1 µM |  |  |  |  |  |  |  |  |  | 
CCCCCCCCCCCCCCN | > 100 µM | > 100 µM | > 100 µM | > 100 µM | > 100 µM |  | > 100 µM | > 100 µM | > 100 µM | > 100 µM |  |  |  |  |  |  |  |  |  | 
O=C(Nc1cccc([N+](=O)[O-])c1)C(=O)C(C(=O)c1ccccc1-c1ccccc1)C1OC(=O)c2ccccc21 (configuration not stated) | > 100 µM | 36.6 µM | 38.9 µM | 60.3 µM | 71 µM |  | 75.8 µM | 38.3 µM | 36.4 µM | 33.9 µM |  |  |  |  |  |  |  |  |  | 
